Reference: publication PMC7549214 (Malaria Journal, 2020)
Where two headings read alike, the source gives them in different places.

Columns and labels:
Microsomal stability [1] = assay type: in vitro ADME, rat; conditions: RLM, Test Conc. 10 µM
male gametocytes = test: Male gametocyte functional viability assay; assay type: cell-based; conditions: Plasmodium falciparum
Description: Gametocyte cultures were tested for functional viability and maturity after 14 days. Testing functional viability was done by quantifying male gametocyte formation, which was carried out by withdrawing 200 μl of culture. Following this, culture was centrifuged, and the pellet was resuspended in 5 μl ookinete medium (RPMI medium with 25 mM HEPES, 50 mg/l hypoxanthine, 2 g/l sodium bicarbonate, 100 μM xanthurenic acid, and 10% A^+ human serum). The culture was observed under a microscope. […] The plates were then incubated at 37 °C for 24 h. Gamete formation was induced on day 15 and observed under the microscope following the method described by Ruecker et al.. The assay was performed using four independent biological replicates.

in vitro [2] = assay type: in vitro ADME; conditions: dog, plasma
in vitro [3] = assay type: in vitro ADME; conditions: rat, plasma
Microsomal stability [4] = assay type: in vitro ADME, mouse; conditions: MLM, Test Conc. 10 µM
[5] = tested on: Dd2 DDD107498 (PfeEF2 Y186N); test: microbe, parasite or virus in culture; assay type: cell-based; conditions: Plasmodium falciparum
[6] = tested on: human HDAC (HeLa nuclear extract); test: HDAC activity screening, fluorescence-based, HeLa nuclear extract; assay type: biochemical
Description: HeLa nuclear extract was used as the enzyme source. […] The assay was performed in 96-well black microplates, and the total volume of the assay was set at 100 µl. […] The enzyme mixture was prepared by adding […] of the diluted enzyme (HeLa nuclear extract) to […] of HDAC buffer. From the enzyme mixture, 40 µl was taken and mixed with 10 µl of test compound (final concentration from 0.01 to 10 µM) or vehicle (control). The final mixture (50 µl) was added to each well which was then pre-incubated at 37 °C for 10 min. The HDAC reaction was started by adding 50 µl of HDAC substrate: […] The plate was incubated at 37 °C for 45 min. Trypsin stop solution (50 µl) was added to the well, and the plate was further incubated at 37 °C for 15 min to stop the reaction. The release of AMC was monitored by measuring the fluorescence at an excitation wavelength of 360 nm and an emission wavelength of 460 nm. Buffer and substrate alone served as blank.

[7] = Repeated dose 14-day toxicity study;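 also: rats dosed once daily for 14 days, test item in Tween 80 plus methylcellulose vehicle at 10 mL/kg bw, compared against vehicle-treated G1 controls by one-way ANOVA with Dunnett test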
Description: The animal grouping was done by the method of body weight stratification and randomization. The animals procured for the study were weighed and grouped into body weight ranges. […] Tween 80 (0.1% (v/v)) + methylcellulose (0.5% (w/v)) was used as a vehicle and the test item was dosed at a dose volume of 10 mL/kg bw. The animals were dosed once a day for a period of 14 consecutive days. The test item was administered at concentrations as mentioned in the Table for G2, G3, G4, G5 groups whereas vehicle was administered to G1 group (vehicle control) at the volume of 10 mL/kg body weight. […] On days 2 to 13, animals were dosed in the fed state. During the study, observations were made for clinical signs and mortality, body weights, gross necropsy and organ weights. The data were subjected to statistical analyses using GraphPad Prism version 5.00, GraphPad Software. One way ANOVA with Dunnets post-test were done for different treatment groups compared with the control group data.

Plasma protein binding [8] = assay type: in vitro ADME; conditions: rat, read-out: Plasma protein binding (% bound)
Plasma protein binding [9] = assay type: in vitro ADME; conditions: monkey, read-out: Plasma protein binding (% bound)
Microsomal stability [10] = assay type: in vitro ADME, human; conditions: HLM, Test Conc. 10 µM
CYP2C19 = CYP2C19 (Homo sapiens, UniProt P33261); test: CYP inhibition; assay type: in vitro ADME; conditions: read-out: CYP inhibition IC50, CYP 2C19
Sequence of CYP2C19 (P33261 whole entry, species assumed): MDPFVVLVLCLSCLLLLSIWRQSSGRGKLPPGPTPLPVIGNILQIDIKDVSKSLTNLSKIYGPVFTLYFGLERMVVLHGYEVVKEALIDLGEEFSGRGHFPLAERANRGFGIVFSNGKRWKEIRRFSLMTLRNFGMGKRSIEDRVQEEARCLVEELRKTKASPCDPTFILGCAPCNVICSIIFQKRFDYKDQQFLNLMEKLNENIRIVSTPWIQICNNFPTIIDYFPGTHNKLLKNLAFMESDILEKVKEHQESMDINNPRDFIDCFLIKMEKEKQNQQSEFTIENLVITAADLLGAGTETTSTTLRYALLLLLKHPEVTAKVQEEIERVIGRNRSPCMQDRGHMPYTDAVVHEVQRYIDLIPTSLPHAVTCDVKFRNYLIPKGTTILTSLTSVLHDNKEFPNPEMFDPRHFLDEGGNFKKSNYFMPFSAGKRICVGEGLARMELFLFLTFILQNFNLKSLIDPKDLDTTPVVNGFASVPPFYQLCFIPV

Cytotoxicity = assay type: cell-based; conditions: human, THP-1 cells
THP-1 = test: Cytotoxicity; assay type: cell-based
Plasma protein binding [11] = assay type: in vitro ADME; conditions: mouse, read-out: Plasma protein binding (% bound)
Dd2 = test: microbe, parasite or virus in culture; assay type: cell-based; conditions: Plasmodium falciparum
CYP2C9 = CYP2C9 (Homo sapiens, UniProt P11712); test: CYP inhibition; assay type: in vitro ADME; conditions: read-out: CYP inhibition IC50, CYP 2C9
Sequence of CYP2C9 (P11712 whole entry, species assumed): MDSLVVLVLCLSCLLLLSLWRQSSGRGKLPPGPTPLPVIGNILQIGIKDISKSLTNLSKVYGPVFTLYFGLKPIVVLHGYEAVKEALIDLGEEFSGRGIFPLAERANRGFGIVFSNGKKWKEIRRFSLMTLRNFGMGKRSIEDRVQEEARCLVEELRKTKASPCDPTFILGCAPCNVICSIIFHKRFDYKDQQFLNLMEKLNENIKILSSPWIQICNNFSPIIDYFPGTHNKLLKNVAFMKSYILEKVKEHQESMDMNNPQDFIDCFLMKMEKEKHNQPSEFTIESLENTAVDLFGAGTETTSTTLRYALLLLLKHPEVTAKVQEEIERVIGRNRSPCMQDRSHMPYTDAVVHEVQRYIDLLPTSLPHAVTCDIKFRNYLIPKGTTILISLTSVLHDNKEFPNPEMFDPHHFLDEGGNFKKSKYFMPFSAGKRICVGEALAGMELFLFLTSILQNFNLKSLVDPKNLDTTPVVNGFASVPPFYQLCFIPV

hERG = hERG (Homo sapiens, UniProt Q12809); test: hERG binding
Sequence of hERG (Q12809 whole entry): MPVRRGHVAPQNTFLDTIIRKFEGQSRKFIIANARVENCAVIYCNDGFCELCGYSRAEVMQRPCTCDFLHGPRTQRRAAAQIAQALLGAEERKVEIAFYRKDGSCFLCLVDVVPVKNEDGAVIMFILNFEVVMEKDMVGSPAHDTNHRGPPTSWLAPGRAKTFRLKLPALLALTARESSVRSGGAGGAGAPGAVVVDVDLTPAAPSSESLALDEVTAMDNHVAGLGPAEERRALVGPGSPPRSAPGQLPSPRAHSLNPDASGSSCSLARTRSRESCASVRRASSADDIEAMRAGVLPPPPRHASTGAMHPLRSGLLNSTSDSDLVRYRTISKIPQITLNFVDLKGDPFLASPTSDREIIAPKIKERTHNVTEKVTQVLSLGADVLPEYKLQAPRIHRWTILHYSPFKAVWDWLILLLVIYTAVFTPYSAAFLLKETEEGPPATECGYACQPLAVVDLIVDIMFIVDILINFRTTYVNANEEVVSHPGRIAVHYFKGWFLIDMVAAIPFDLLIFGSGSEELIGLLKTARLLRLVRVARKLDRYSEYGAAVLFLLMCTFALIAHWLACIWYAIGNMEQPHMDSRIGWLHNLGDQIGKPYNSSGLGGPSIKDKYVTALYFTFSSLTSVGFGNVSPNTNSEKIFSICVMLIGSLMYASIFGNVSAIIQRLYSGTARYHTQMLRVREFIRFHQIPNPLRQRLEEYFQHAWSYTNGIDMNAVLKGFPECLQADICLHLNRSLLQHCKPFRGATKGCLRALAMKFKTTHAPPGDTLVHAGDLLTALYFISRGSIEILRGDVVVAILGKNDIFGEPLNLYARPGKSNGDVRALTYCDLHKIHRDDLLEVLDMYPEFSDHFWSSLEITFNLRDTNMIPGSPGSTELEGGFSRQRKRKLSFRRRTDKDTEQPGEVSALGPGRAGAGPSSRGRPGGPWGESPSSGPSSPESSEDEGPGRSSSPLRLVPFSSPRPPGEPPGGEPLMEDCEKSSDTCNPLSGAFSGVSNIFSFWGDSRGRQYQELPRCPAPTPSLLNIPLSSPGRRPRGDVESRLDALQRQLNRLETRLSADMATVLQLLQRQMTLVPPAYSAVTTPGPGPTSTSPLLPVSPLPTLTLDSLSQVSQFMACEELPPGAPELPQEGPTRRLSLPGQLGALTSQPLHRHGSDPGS

O=C(NO)c1ccc(Cn2cc(-c3ccc(CN4CCCC4)cc3)nn2)cc1 [FNDR-20123]
Microsomal stability (% remaining at 120 min) (Microsomal stability [1]): 74.56%
remaining at 2 h, 10 µM (Microsomal stability [1]; rat, liver microsomes, read-out: Microsomal stability (% remaining at 120 min)): > 75%
IC50 (male gametocytes): 190 nM
remaining at 4 h (in vitro [2]): 97.7%
remaining at 4 h (in vitro [3]): 88.9%
Microsomal stability (% remaining at 120 min) (Microsomal stability [4]): 76.15%
remaining at 2 h, 10 µM (Microsomal stability [4]; mouse, liver microsomes, read-out: Microsomal stability (% remaining at 120 min)): > 75%
IC50 [5]: 20.9 nM
Human HDAC % inhibition @1μM ([6]; 1μM): 95%
IC50 ([6]; HeLa nuclear extract, read-out: Human HDAC IC50): 3 nM
IC50 ([6]; single experiment assays, read-out: IC50 HeLa nuclear extract): 3 nM
Toxic effects on body weights and organ weights ([7]; 14-day oral, 50, 100 and 150 mg/kg body weight, male and female rats): no adverse toxic effects on body weights and organ weights
Adverse clinical signs or mortality ([7]; 14-day repeat dose oral gavage, both sexes): did not reveal any adverse clinical signs or mortality
Abnormality in body weight or gross organ pathology ([7]; 14-day, 100 mg/kg daily dose): did not show any abnormality in body weight or gross organ pathology
Fasting body weight ([7]; female, G2 50 mg/kg): 149.51 g
Body weight ([7]; female, G2 50 mg/kg bw, day 1): 146.45 g
Body weight ([7]; female, G2 50 mg/kg bw, day 7): 150.70 g
Body weight ([7]; female, G2 50 mg/kg bw, day 14): 161.49 g
Body weight ([7]; female, G3 100 mg/kg bw, day 1): 146.70 g
Body weight ([7]; female, G3 100 mg/kg bw, day 7): 145.63 g
Body weight ([7]; female, G3 100 mg/kg bw, day 14): 158.43 g
Fasting body weight ([7]; female, G4 150 mg/kg): 134.25 g
Body weight ([7]; female, G4 150 mg/kg bw, day 7): 139.82 g
Body weight ([7]; female, G4 150 mg/kg bw, day 14): 142.91 g
Fasting body weight ([7]; male, G2 50 mg/kg): 189.75 g
Body weight ([7]; male, G2 50 mg/kg bw, day 1): 166.04 g
Body weight ([7]; male, G2 50 mg/kg bw, day 7): 190.40 g
Body weight ([7]; male, G2 50 mg/kg bw, day 14): 209.30 g
Fasting body weight ([7]; male, G3 100 mg/kg): 163.82 g
Body weight ([7]; male, G3 100 mg/kg bw, day 1): 166.39 g
Body weight ([7]; male, G3 100 mg/kg bw, day 7): 173.72 g
Body weight ([7]; male, G3 100 mg/kg bw, day 14): 177.16 g
Fasting body weight ([7]; male, G4 150 mg/kg): 174.95 g
Body weight ([7]; male, G4 150 mg/kg bw, day 1): 170.86 g
Body weight ([7]; male, G4 150 mg/kg bw, day 7): 180.10 g
Body weight ([7]; male, G4 150 mg/kg bw, day 14): 188.27 g
fraction unbound (Plasma protein binding [8]): 0.581
fraction unbound (Plasma protein binding [9]): > 0.8
Microsomal stability (% remaining at 120 min) (Microsomal stability [10]): 85.31%
remaining at 2 h, 10 µM (Microsomal stability [10]; human, liver microsomes, read-out: Microsomal stability (% remaining at 120 min)): > 75%
IC50 (CYP2C19): > 60000 nM
IC50 (Cytotoxicity): 114000 nM
Cytotoxicity to THP-1 cell line (THP-1): negligible cytotoxicity
fraction unbound (Plasma protein binding [11]): > 0.7
IC50 (Dd2): 17.5 nM
IC50 (CYP2C9): > 60000 nM
IC50 (hERG): > 100000 nM
